# pIC50: −log10 of the molar value. Activity calls are given as the source filed them. The rule behind the calls is not given here.
# Experiments:
# [1] = test system: Monocyte; assay: Anti-osteoclastogensis in C57BL/6 mouse bone marrow monocytes assessed as inhibition of RANKL/M-CSF induced osteoclastogenesis at 10 uM incubated for 5 days relative to control; assay type: functional; settings: C57BL/6, Monocyte, 120 h, time 5 day
# [2] = test system: Monocyte; assay: Anti-osteoclastogensis in C57BL/6 mouse bone marrow monocytes assessed as inhibition of RANKL/M-CSF induced osteoclastogenesis at 10 uM incubated for 5 days; assay type: functional, cell-based; settings: C57BL/6, Monocyte, 120 h
# [3] = Cytotoxicity against C57BL/6 mouse bone marrow monocytes assessed as reduction in cell viability incubated for 48 hrs by MTT assay; assay type: toxicity, cell-based, Monocyte
# [4] = Selectivity index, ratio of CC50 for cytotoxicity against C57BL/6 mouse bone marrow monocytes to IC50 for anti-osteoclastogensis in C57BL/6 mouse bone marrow monocytes assessed as inhibition of RANKL/M-CSF induced osteoclastogenesis; assay type: cell-based, Monocyte; settings: read-out: Ratio CC50/IC50
# [5] = test system: RAW264.7; assay: Inhibition of RANKL-induced MAPK signaling in mouse RAW264.7 cells assessed as inhibition of ERK1/2 phosphorylation incubated for 60 mins in presence of RANKL by Western blot analysis; assay type: cell-based; settings: dose 5-10 µM
# [6] = test system: RAW264.7; assay: Inhibition of RANKL-induced MAPK signaling in mouse RAW264.7 cells assessed as inhibition of JNK1/2 phosphorylation incubated for 60 mins in presence of RANKL by Western blot analysis; assay type: cell-based; settings: dose 5-10 µM
# [7] = test system: RAW264.7; assay: Inhibition of RANKL-induced MAPK signaling in mouse RAW264.7 cells assessed as inhibition of p38 phosphorylation incubated for 60 mins in presence of RANKL by Western blot analysis; assay type: cell-based; settings: dose 5-10 µM
# [8] = test system: RAW264.7; assay: Inhibition of RANKL-induced NFkappaB signaling in mouse RAW264.7 cells assessed as inhibition of NFkappab nuclear translocation at 10 uM incubated for 60 mins in presence of RANKL by Western blot analysis; assay type: cell-based
SMILES,inhibition at 10 µM [1] [%],pIC50 [2],CC50 at 48 h [3] [µM],selectivity ratio [4],inhibition [5],inhibition [6],inhibition [7],inhibition [8]
C=C[C@@]1(C)CC(=O)O[C@H]1C1=CC[C@H]2C(C)(C)CC[C@H](O)[C@]2(C)C1=O,88.4,5.52,> 30,> 10,Dose-Dependent Effect,Dose-Dependent Effect,Dose-Dependent Effect,Active
C=C1CC[C@@H]2OC(=O)C=C(C[C@]3(C)CC(=O)O[C@H]3CO)C(=O)[C@]2(C)[C@@H]1C,75,5.38,> 30,> 7,Dose-Dependent Effect,Dose-Dependent Effect,Dose-Dependent Effect,Active

# Source: ChEMBL document CHEMBL5357006, “Pestanoid A, a Rearranged Pimarane Diterpenoid Osteoclastogenesis Inhibitor from a Marine Mesophotic Zone Chalinidae Sponge-Associated Fungus, Pestalotiopsis sp. NBUF145” (J Nat Prod, 2024)
